# Reference: US11191855B2, “1,7-diaryl-1,6-heptadiene-3,5-dione derivatives, methods for the production and use thereof” (UNIVERSITÄTSKLINIKUM REGENSBURG, priority 2015, dated 2021)
# Where a name gives a salt, the structure may show the parent alone. Read-outs that look alike come from different tables or passages of the source.
# How the values were obtained:
# S. aureus ATCC 25923 [1] = test: Phototoxicity test c.2) (BlueV light source, emission maximum approx. 420 nm, CFU count); format: cell-based, Staphylococcus aureus; details: for log reduction at 10 µM / log reduction at 50 µM: Staphylococcus aureus, ATCC25923, light or radiation study, 5 min; for log reduction at 10 µM: read-out: Effectiveness against S. aureus: Reduction in CFU in log10 at concentration of 10 μM; for log reduction at 50 µM: read-out: Effectiveness against S. aureus: Reduction in CFU in log10 at concentration of 50 μM
# Protocol: A sample of the bacterial cell Staphylococcus. aureus (ATCC number: 25923) or Escherichia. coli (ATCC number: 25922) was removed from a cryo-freeze culture and cultured under aerobic conditions at 37° C. and 175 rpm overnight in an orbital shaker (MAXQ4000, Thermo Scientific, Dubuque, Iowa, USA). Growth was carried out in 20 mL Todd-Hewitt broth (Carl Roth, Karlsruhe, Germany) supplemented with 0.3% of yeast extract (AppliChem, Darmstadt, Germany). In a second experiment, the photosensitizers (PS) used were dissolved in Millipore water and adjusted to various concentrations. 25 μL of a bacterial suspension grown overnight ( 108/mL) was incubated with 25 μL of photosensitizer solution of the various concentrations at room temperature for 10 seconds in darkness in a 96-well plate. Next, the suspension was irradiated for 5-20 minutes. For the irradiation, the light source BlueV from […], Germany) was used, which emits light from 380 to 480 nm (emission maximum at approximately 420 nm). The applied energy density was 17.5 mW/cm^2. Each experiment was accompanied by three controls in order to exclude side effect of the irradiation/photosensitizer (PS) on the survival of the bacteria: (i) no PS, only light (=light control), (ii) no light, only PS (=dark control) and (iii) neither light nor PS (=reference control). […] All of the tests were carried out four times. […] All of the remaining PS were tested against S. aureus ATCC 25923 (FIGS. 24-33). FIGS. 21-33 show the logarithmic reduction after illumination with respect to the reference control. […] The irradiation period was 5 minutes (emission maximum at approximately 420 nm) for an applied intensity of 17.5 mW/cm^2, i.e. an applied light energy (dosage) of 5.3 J/cm^2. The average reference control (arithmetic mean with standard deviation) (no light, no PS) was 3.9×10^8/mL. The logarithmic reduction after illumination is shown with respect to the reference control.
# [2] = natural curcumin, background statement; cited from earlier work
# E. coli ATCC 25922 [3] = test: Comparative Example 3: phototoxicity by methods c.1) and c.2); format: cell-based, Escherichia coli; details: either of the methods c.1) and c.2)
# Protocol: (§1) A 2-hour culture was divided into 1800 μL aliquots. After centrifuging at 20° C., 830 rcf, 5 min (5417R centrifuge, Eppendorf, Hamburg, Germany), the pellets were re-suspended in phosphate buffer (Dulbeccos' Modified Phosphate Saline, DPBS, Sigma-Aldrich) with either 10 or 50 μM of the corresponding photosensitizer, wherein the final volume was kept at 1800 μL.
# (§2) The irradiation was carried out under constant shaking (MTS4, IKA, Staufen, Germany, 175 rpm) from below on a LED array with maximum homogeneity of the lighting surface. All of the controls were shaken in the same manner. The technical data for the light source are shown in Table 2; the total dose of light applied was 33.8 J/cm^2.
# (§3) The determination of the colony forming units (CFU) was carried out in accordance with the method published by Miles and Misra (Miles, A A; Misra, S S, Irwin, J O (1938 Nov.). “The estimation of the bactericidal power of the blood” The Journal of hygiene 38 (6): 732-49). In this regard, serial dilutions (1:10) of the corresponding bacterial suspension were produced in DPBS. 5×10 μL of each bacterial dilution was then dripped onto Todd-Hewitt plates (with broth, additional 1.5% agar (Agar-Agar, Kobe I, Roth, Karlsruhe, Germany) and incubated at 37° C. for 24 h. Next, the number of surviving colony forming units was determined. All of the tests were carried out four times. […]
# S. aureus ATCC 25923 [4] = test: as above; format: cell-based, Staphylococcus aureus; details: either of the methods c.1) and c.2)
# Protocol: as §1, §2, §3
# E. coli ATCC 25922 [5] = test: Phototoxicity test c.2) (BlueV light source, emission maximum approx. 420 nm, CFU count); format: cell-based, Escherichia coli; details: light dose 15.7 J/cm^2, approx. 420 nm, 15 min at 17.5 mW/cm^2, vs reference control
# Protocol: A sample of the bacterial cell Staphylococcus. aureus (ATCC number: 25923) or Escherichia. coli (ATCC number: 25922) was removed from a cryo-freeze culture and cultured under aerobic conditions at 37° C. and 175 rpm overnight in an orbital shaker (MAXQ4000, Thermo Scientific, Dubuque, Iowa, USA). Growth was carried out in 20 mL Todd-Hewitt broth (Carl Roth, Karlsruhe, Germany) supplemented with 0.3% of yeast extract (AppliChem, Darmstadt, Germany).
# In a second experiment, the photosensitizers (PS) used were dissolved in Millipore water and adjusted to various concentrations. 25 μL of a bacterial suspension grown overnight (˜108/mL) was incubated with 25 μL of photosensitizer solution of the various concentrations at room temperature for 10 seconds in darkness in a 96-well plate.
# Next, the suspension was irradiated for 5-20 minutes. For the irradiation, the light source BlueV from Waldmann (Villingen-Schwenningen, Germany) was used, which emits light from 380 to 480 nm (emission maximum at approximately 420 nm). The applied energy density was 17.5 mW/cm^2.
# Each experiment was accompanied by three controls in order to exclude side effect of the irradiation/photosensitizer (PS) on the survival of the bacteria: (i) no PS, only light (=light control), (ii) no light, only PS (=dark control) and (iii) neither light nor PS (=reference control). The determination of the colony forming units (CFU) per mL was also carried out in accordance with the method published by Miles, Misra and Irwin described above in section c.1). All of the tests were carried out four times.
# The photosensitizers (PS) SACUR-01a, SACUR-03 and SACUR-07 were tested against the bacterial strains S. aureus ATCC 25923 and E. coli ATCC 25922 (FIGS. 21-23). All of the remaining PS were tested against S. aureus ATCC 25923 (FIGS. 24-33). FIGS. 21-33 show the logarithmic reduction after illumination with respect to the reference control.
# The average reference control (arithmetic mean with standard deviation) (no light, no PS) was 3.6×10^8/mL for E. coli. The logarithmic reduction after illumination is shown with respect to the reference control.
# [6] = Comparative Example 3: stability and molar extinction coefficient in aqueous solution; format: physicochemical; details: comparable with natural curcumin
# Protocol: In a further test, the stability and phototoxicity of the following compounds were tested.
# Incubation with the compound (71) (SACUR-01d) and the bacterial strains S. aureus ATCC 25923 and E. coli ATCC 25922 employed as well as irradiation with electromagnetic radiation and determination of the phototoxicity were carried out as described in sections c.1) and c.2) above. […] The free OH groups contribute greatly to this photo-instability because due to them, the compound can readily transform into the quinoid mesomer, and thus cleavage of one half of the molecule with the formation of ferulic acids or substituted vanillins is facilitated.
# Aqueous solution A: distilled water.
# Aqueous solution B: isotonic sodium chloride solution (0.9% by weight NaCl).
# Aqueous solution C: PBS buffer, pH 7.4 (composition: see Sambrook, J.; Maniatis, T.; Russel, D. W.: Molecular cloning: a laboratory manual. Cold Spring Harbor Laboratory Press; 3rd edition (2001)).
# [7] = 10 μM, irradiation 5 minutes, approx. 420 nm, 17.5 mW/cm^2, 5.3 J/cm^2, vs reference control
# [8] = 50 μM, irradiation 5 minutes, approx. 420 nm, 17.5 mW/cm^2, 5.3 J/cm^2, vs reference control
# [9] = irradiation 5 minutes, approx. 420 nm, 17.5 mW/cm^2, 5.3 J/cm^2, vs reference control
compound,measurement,setting,value
COc1ccc(/C=C/C(=O)C(CCN)C(=O)/C=C/c2ccc(OC)c(OCCN)c2)cc1OCCN [Curcumin 13a hydrochloride],log reduction at 10 µM,S. aureus ATCC 25923 [1]; [7],> 1
same,log reduction at 50 µM,S. aureus ATCC 25923 [1]; [8],> 5
"COc1cc(/C=C/C(=O)CC(=O)/C=C/c2ccc(OCCC[P+](c3ccccc3)(c3ccccc3)c3ccccc3)c(OC)c2)ccc1OCCC[P+](c1ccccc1)(c1ccccc1)c1ccccc1 [Curcumin 15b hydrochloride, 3,3′-(4,4′-((1E,6E)-3,5-dioxohepta-1,6-diene-1,7-diyl)bis(2-methoxy-4,1-phenylene))bis(oxy)bis(triphenylpropan-1-phosphonium) chloride]",log reduction at 10 µM,S. aureus ATCC 25923 [1],> 4
same,log reduction at 50 µM,S. aureus ATCC 25923 [1],> 5
"(1E,6E)1,7- bis(4-(2- aminoethoxy)-3- methoxy- phenyl)hepta-1,6- diene-3,5-dione hydrochloride BF2 complex [Curcumin 01a BF-complex]",Effectiveness against S. aureus: Reduction in CFU in log10 at concentration of 10 μM,S. aureus ATCC 25923 [1]; [7],>5 log10
same,Effectiveness against S. aureus: Reduction in CFU in log10 at concentration of 50 μM,S. aureus ATCC 25923 [1]; [8],>5 log10
"COc1cc(C=CC(=O)CC(=O)C=Cc2ccc(O)c(OC)c2)ccc1O [curcumin, 1,7-bis-(4-hydroxy-3-methoxyphenyl)-1,6-heptadiene-3,5-dione]",Solubility in water,[2],low solubility in water
"CN(C)c1ccc(/C=C/C2=CC(=C/C=C3C=CC(=[N+](C)C)C=C3)/O[B-](F)(F)O2)cc1 [CRANAD-2, reference compound]",Inactivation of E. coli ATCC 25922 upon illumination in the presence of the compound,E. coli ATCC 25922 [3],could not be ascertained
same,Inactivation of S. aureus ATCC 25923 upon illumination in the presence of the compound,S. aureus ATCC 25923 [4],could not be ascertained
COc1cc(/C=C(\C)C(=O)CC(=O)/C(C)=C/c2ccc(OCCN)c(OC)c2)ccc1OCCN.Cl.Cl [Curcumin 14a hydrochloride],Effectiveness against S. aureus: Reduction in CFU in log10 at concentration of 100 μM,S. aureus ATCC 25923 [1]; [9],>2 log10
same,Effectiveness against S. aureus: Reduction in CFU in log10 at concentration of 250 μM,S. aureus ATCC 25923 [1]; [9],>3 log10
same,log reduction at 50 µM,S. aureus ATCC 25923 [1]; [8],> 1
COc1cc(/C=C/C(=O)C(C)C(=O)/C=C/c2ccc(OCCN)c(OC)c2)ccc1OCCN [Curcumin 09a hydrochloride],log reduction at 10 µM,S. aureus ATCC 25923 [1]; [7],> 2
same,log reduction at 50 µM,S. aureus ATCC 25923 [1]; [8],> 5
COc1cc(/C=C/C(=O)C(C)C(=O)/C=C/c2ccc(OCCN)c(OCCN)c2)ccc1OCCN (stereo not shown) [Curcumin 13c hydrochloride],log reduction at 10 µM,S. aureus ATCC 25923 [1]; [7],> 1
same,log reduction at 50 µM,S. aureus ATCC 25923 [1]; [8],> 5
CCCCCCCCOc1ccc(/C=C/C(=O)CC(=O)/C=C/c2ccc(OCCCCCCCC)c(OCCN)c2)cc1OCCN.Cl [Curcumin 07 hydrochloride],Effectiveness against E. Coli: Reduction in CFU in log10 at concentration of 10 μM,E. coli ATCC 25922 [5]; 10 μM,>1 log10
same,Effectiveness against E. Coli: Reduction in CFU in log10 at concentration of 50 μM,E. coli ATCC 25922 [5]; 50 μM,>4 log10
same,log reduction at 10 µM,S. aureus ATCC 25923 [1]; [7],> 2
same,log reduction at 50 µM,S. aureus ATCC 25923 [1]; [8],> 5
Cl.Cl.NCCOc1ccc2cc(/C=C/C(=O)CC(=O)/C=C/c3ccc4cc(OCCN)ccc4c3)ccc2c1 [Curcumin 12b hydrochloride],Effectiveness against S. aureus: Reduction in CFU in log10 at concentration of 100 μM,S. aureus ATCC 25923 [1]; [9],~2 log10
same,Effectiveness against S. aureus: Reduction in CFU in log10 at concentration of 250 μM,S. aureus ATCC 25923 [1]; [9],>3 log10
same,log reduction at 50 µM,S. aureus ATCC 25923 [1]; [8],> 1
"COc1cc(/C=C/C(=O)CC(=O)/C=C/c2ccc(OCCC[P+](C)(C)C)c(OC)c2)ccc1OCCC[P+](C)(C)C [Curcumin 15a hydrochloride, 3,3′-(4,4′-((1E,6E)-3,5-dioxohepta-1,6-diene-1,7-diyl)bis(2-methoxy-4,1-phenylene))bis(oxy)bis(trimethylpropan-1-phosphonium) chloride]",log reduction at 10 µM,S. aureus ATCC 25923 [1]; [7],~1
same,log reduction at 50 µM,S. aureus ATCC 25923 [1]; [8],> 5
COc1ccc(/C=C/C(=O)C(CCN)C(=O)/C=C/c2ccc(OC)c(OC)c2)cc1OC.Cl [Curcumin 11a hydrochloride],Effectiveness against S. aureus: Reduction in CFU in log10 at concentration of 100 μM,S. aureus ATCC 25923 [1]; [9],>2 log10
same,Effectiveness against S. aureus: Reduction in CFU in log10 at concentration of 250 μM,S. aureus ATCC 25923 [1]; [9],>5 log10
same,log reduction at 50 µM,S. aureus ATCC 25923 [1]; [8],> 1
Cl.Cl.NCCOc1ccc(/C=C/C(=O)CC(=O)/C=C/c2ccc(OCCN)c(O)c2)cc1O [Curcumin 01d hydrochloride],Inactivation of E. coli ATCC 25922 upon illumination in the presence of the compound,E. coli ATCC 25922 [3],Hardly any inactivation
same,Inactivation of S. aureus ATCC 25923 upon illumination in the presence of the compound,S. aureus ATCC 25923 [4],Hardly any inactivation
same,Stability in aqueous solution,[6],low stability
